Measurements reported in PubChem BioAssay (NCI).
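The compound was tested at five concentrations on cells cultured in 96-well plates, with a 48-hour exposure period. GI50 marks 50% less growth. TGI: concentration producing complete growth inhibition.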

Experiments:
Test in all cases: NCI tumour cell line growth inhibition, 48 h
786-0 renal = test system: 786-0 renal
A498 renal = test system: A498 renal
A549 NSCLC = test system: A549 NSCLC
ACHN renal = test system: ACHN renal
BT-549 breast = test system: BT-549 breast
CCRF-CEM leukemia = test system: CCRF-CEM leukemia
COLO 205 colon = test system: COLO 205 colon
DU-145 prostate = test system: DU-145 prostate
EKVX NSCLC = test system: EKVX NSCLC
HCC-2998 colon = test system: HCC-2998 colon
HCT-116 colon = test system: HCT-116 colon
HCT-15 colon = test system: HCT-15 colon
HL-60(TB) leukemia = test system: HL-60(TB) leukemia
HOP-62 NSCLC = test system: HOP-62 NSCLC
HOP-92 NSCLC = test system: HOP-92 NSCLC
HS 578T breast = test system: HS 578T breast
HT29 colon = test system: HT29 colon
IGROV1 ovarian = test system: IGROV1 ovarian
K-562 leukemia = test system: K-562 leukemia
KM12 colon = test system: KM12 colon
LOX IMVI melanoma = test system: LOX IMVI melanoma
M14 melanoma = test system: M14 melanoma
MALME-3M melanoma = test system: MALME-3M melanoma
MCF7 breast = test system: MCF7 breast
MDA-MB-231 breast = test system: MDA-MB-231 breast
MDA-MB-435 = test system: MDA-MB-435
MOLT-4 leukemia = test system: MOLT-4 leukemia
NCI-H226 lung = test system: NCI-H226 lung
NCI-H23 lung = test system: NCI-H23 lung
NCI-H460 lung = test system: NCI-H460 lung
NCI-H522 lung = test system: NCI-H522 lung
NCI/ADR-RES ovarian = test system: NCI/ADR-RES ovarian
OVCAR-3 ovarian = test system: OVCAR-3 ovarian
OVCAR-4 ovarian = test system: OVCAR-4 ovarian
OVCAR-5 ovarian = test system: OVCAR-5 ovarian
OVCAR-8 ovarian = test system: OVCAR-8 ovarian
PC-3 prostate = test system: PC-3 prostate
RPMI-8226 leukemia = test system: RPMI-8226 leukemia
RXF 393 renal = test system: RXF 393 renal
SF-268 CNS = test system: SF-268 CNS
SF-295 CNS = test system: SF-295 CNS
SF-539 CNS = test system: SF-539 CNS
SK-MEL-2 melanoma = test system: SK-MEL-2 melanoma
SK-MEL-28 melanoma = test system: SK-MEL-28 melanoma
SK-MEL-5 melanoma = test system: SK-MEL-5 melanoma
SK-OV-3 ovarian = test system: SK-OV-3 ovarian
SN12C renal = test system: SN12C renal
SNB-19 CNS = test system: SNB-19 CNS
SNB-75 CNS = test system: SNB-75 CNS
SR leukemia = test system: SR leukemia
SW-620 colon = test system: SW-620 colon
T-47D breast = test system: T-47D breast
TK-10 renal = test system: TK-10 renal
U251 CNS = test system: U251 CNS
UACC-257 melanoma = test system: UACC-257 melanoma
UACC-62 melanoma = test system: UACC-62 melanoma
UO-31 renal = test system: UO-31 renal

How did the GI50 (786-0 renal) turn out when C=CCCCC(=O)CCC(=O)OCC1O[C@@H](O[C@@H]2C(O)[C@@H](OC(C)=O)C(C)O[C@H]2O[C@H](CC=C)CCCCC)C(O)[C@@H](OC(=O)/C(C)=C/C)[C@@H]1OC(=O)/C=C/c1ccccc1 (some centres not stated) was run?
Its GI50 is 316 nM.

And the TGI (786-0 renal)?
Its TGI is greater than 50000 nM.

What about the GI50 (A498 renal) of the same molecule?
The GI50 was 612 nM.

And the TGI (A498 renal)?
The TGI was greater than 50000 nM.

What about the GI50 (A549 NSCLC) of the same molecule?
The GI50 was 34.5 nM.

What about the TGI (A549 NSCLC) of the same molecule?
Its TGI is greater than 50000 nM.

What about the GI50 (ACHN renal) of the same molecule?
Its GI50 is 151 nM.

What about the TGI (ACHN renal) of the same molecule?
The TGI was greater than 50000 nM.

And the GI50 (BT-549 breast)?
Its GI50 is 345 nM.

What about the TGI (BT-549 breast) of the same molecule?
The TGI was greater than 50000 nM.

What about the GI50 (CCRF-CEM leukemia) of the same molecule?
Its GI50 is 551 nM.

What about the TGI (CCRF-CEM leukemia) of the same molecule?
Its TGI is greater than 50000 nM.

What about the GI50 (COLO 205 colon) of the same molecule?
Its GI50 is 88 nM.

What about the TGI (COLO 205 colon) of the same molecule?
The TGI was 1550 nM.

And the GI50 (DU-145 prostate)?
Its GI50 is 292 nM.

And the TGI (DU-145 prostate)?
The TGI was greater than 50000 nM.

And the GI50 (EKVX NSCLC)?
The GI50 was 428 nM.

What about the TGI (EKVX NSCLC) of the same molecule?
The TGI was greater than 50000 nM.

And the GI50 (HCC-2998 colon)?
The GI50 was 1080 nM.

And the TGI (HCC-2998 colon)?
The TGI was greater than 50000 nM.

What about the GI50 (HCT-116 colon) of the same molecule?
Its GI50 is 26.2 nM.

What about the TGI (HCT-116 colon) of the same molecule?
Its TGI is greater than 50000 nM.

What about the GI50 (HCT-15 colon) of the same molecule?
Its GI50 is 263 nM.

And the TGI (HCT-15 colon)?
Its TGI is greater than 50000 nM.

What about the GI50 (HL-60(TB) leukemia) of the same molecule?
The GI50 was 673 nM.

And the TGI (HL-60(TB) leukemia)?
The TGI was 3340 nM.

What about the GI50 (HOP-62 NSCLC) of the same molecule?
The GI50 was 235 nM.

And the TGI (HOP-62 NSCLC)?
Its TGI is greater than 50000 nM.

And the GI50 (HOP-92 NSCLC)?
The GI50 was 38.4 nM.

And the GI50 (HS 578T breast)?
The GI50 was 131 nM.

And the TGI (HS 578T breast)?
The TGI was greater than 50000 nM.

And the GI50 (HT29 colon)?
The GI50 was 25.1 nM.

What about the TGI (HT29 colon) of the same molecule?
The TGI was 3060 nM.

And the GI50 (IGROV1 ovarian)?
Its GI50 is 280 nM.

What about the TGI (IGROV1 ovarian) of the same molecule?
The TGI was greater than 50000 nM.

And the GI50 (K-562 leukemia)?
The GI50 was 267 nM.

And the TGI (K-562 leukemia)?
The TGI was greater than 50000 nM.

And the GI50 (KM12 colon)?
The GI50 was 142 nM.

What about the TGI (KM12 colon) of the same molecule?
The TGI was greater than 50000 nM.

What about the GI50 (LOX IMVI melanoma) of the same molecule?
Its GI50 is 27.5 nM.

And the TGI (LOX IMVI melanoma)?
The TGI was 127 nM.

What about the GI50 (M14 melanoma) of the same molecule?
Its GI50 is 63.3 nM.

And the GI50 (MALME-3M melanoma)?
The GI50 was 871 nM.

And the TGI (MALME-3M melanoma)?
The TGI was greater than 50000 nM.

What about the GI50 (MCF7 breast) of the same molecule?
Its GI50 is 31.6 nM.

And the TGI (MCF7 breast)?
Its TGI is greater than 50000 nM.

What about the GI50 (MDA-MB-231 breast) of the same molecule?
Its GI50 is 8.66 nM.

And the TGI (MDA-MB-231 breast)?
Its TGI is 30.9 nM.

And the GI50 (MDA-MB-435)?
Its GI50 is 21.6 nM.

And the TGI (MDA-MB-435)?
Its TGI is greater than 50000 nM.

And the GI50 (MOLT-4 leukemia)?
The GI50 was 2090 nM.

And the TGI (MOLT-4 leukemia)?
Its TGI is greater than 50000 nM.

And the GI50 (NCI-H226 lung)?
The GI50 was 564 nM.

And the TGI (NCI-H226 lung)?
The TGI was greater than 50000 nM.

And the GI50 (NCI-H23 lung)?
The GI50 was 995 nM.

What about the TGI (NCI-H23 lung) of the same molecule?
The TGI was greater than 50000 nM.

What about the GI50 (NCI-H460 lung) of the same molecule?
Its GI50 is 65.6 nM.

And the TGI (NCI-H460 lung)?
The TGI was greater than 50000 nM.

And the GI50 (NCI-H522 lung)?
The GI50 was 248 nM.

And the TGI (NCI-H522 lung)?
Its TGI is greater than 50000 nM.

What about the GI50 (NCI/ADR-RES ovarian) of the same molecule?
Its GI50 is 1920 nM.

What about the TGI (NCI/ADR-RES ovarian) of the same molecule?
The TGI was greater than 50000 nM.

What about the GI50 (OVCAR-3 ovarian) of the same molecule?
Its GI50 is 290 nM.

What about the TGI (OVCAR-3 ovarian) of the same molecule?
Its TGI is greater than 50000 nM.

And the GI50 (OVCAR-4 ovarian)?
Its GI50 is 2290 nM.

And the TGI (OVCAR-4 ovarian)?
The TGI was greater than 50000 nM.

What about the GI50 (OVCAR-5 ovarian) of the same molecule?
Its GI50 is 1440 nM.

And the TGI (OVCAR-5 ovarian)?
The TGI was greater than 50000 nM.

And the GI50 (OVCAR-8 ovarian)?
Its GI50 is 173 nM.

And the TGI (OVCAR-8 ovarian)?
The TGI was greater than 50000 nM.

What about the GI50 (PC-3 prostate) of the same molecule?
Its GI50 is 198 nM.

And the TGI (PC-3 prostate)?
The TGI was greater than 50000 nM.

What about the GI50 (RPMI-8226 leukemia) of the same molecule?
The GI50 was 180 nM.

And the TGI (RPMI-8226 leukemia)?
The TGI was 3260 nM.

And the GI50 (RXF 393 renal)?
The GI50 was 76.6 nM.

What about the TGI (RXF 393 renal) of the same molecule?
Its TGI is greater than 50000 nM.

What about the GI50 (SF-268 CNS) of the same molecule?
The GI50 was 505 nM.

What about the TGI (SF-268 CNS) of the same molecule?
Its TGI is greater than 50000 nM.

What about the GI50 (SF-295 CNS) of the same molecule?
Its GI50 is 14.4 nM.

And the TGI (SF-295 CNS)?
The TGI was 5510 nM.

What about the GI50 (SF-539 CNS) of the same molecule?
Its GI50 is 54.6 nM.

And the TGI (SF-539 CNS)?
Its TGI is 12300 nM.

And the GI50 (SK-MEL-2 melanoma)?
Its GI50 is 609 nM.

And the TGI (SK-MEL-2 melanoma)?
The TGI was greater than 14700 nM.

What about the GI50 (SK-MEL-28 melanoma) of the same molecule?
The GI50 was 340 nM.

What about the TGI (SK-MEL-28 melanoma) of the same molecule?
The TGI was greater than 50000 nM.

What about the GI50 (SK-MEL-5 melanoma) of the same molecule?
Its GI50 is 35.2 nM.

And the TGI (SK-MEL-5 melanoma)?
The TGI was 517 nM.

And the GI50 (SK-OV-3 ovarian)?
The GI50 was 959 nM.

What about the TGI (SK-OV-3 ovarian) of the same molecule?
Its TGI is greater than 50000 nM.

And the GI50 (SN12C renal)?
Its GI50 is 88.1 nM.

What about the TGI (SN12C renal) of the same molecule?
Its TGI is 2110 nM.

What about the GI50 (SNB-19 CNS) of the same molecule?
The GI50 was 518 nM.

And the TGI (SNB-19 CNS)?
Its TGI is greater than 50000 nM.

What about the GI50 (SNB-75 CNS) of the same molecule?
The GI50 was 13.3 nM.

What about the TGI (SNB-75 CNS) of the same molecule?
Its TGI is greater than 28000 nM.

And the GI50 (SR leukemia)?
The GI50 was 142 nM.

What about the TGI (SR leukemia) of the same molecule?
The TGI was 1830 nM.

What about the GI50 (SW-620 colon) of the same molecule?
The GI50 was 122 nM.

And the TGI (SW-620 colon)?
Its TGI is greater than 50000 nM.

And the GI50 (T-47D breast)?
Its GI50 is 27.3 nM.

What about the TGI (T-47D breast) of the same molecule?
Its TGI is 1210 nM.

What about the GI50 (TK-10 renal) of the same molecule?
Its GI50 is 106 nM.

What about the TGI (TK-10 renal) of the same molecule?
The TGI was greater than 50000 nM.

And the GI50 (U251 CNS)?
Its GI50 is 29.7 nM.

And the TGI (U251 CNS)?
The TGI was greater than 50000 nM.

What about the GI50 (UACC-257 melanoma) of the same molecule?
Its GI50 is 79.1 nM.

What about the TGI (UACC-257 melanoma) of the same molecule?
Its TGI is 8110 nM.

What about the GI50 (UACC-62 melanoma) of the same molecule?
Its GI50 is 190 nM.

What about the TGI (UACC-62 melanoma) of the same molecule?
The TGI was 5620 nM.

What about the GI50 (UO-31 renal) of the same molecule?
Its GI50 is 33 nM.

And the TGI (UO-31 renal)?
The TGI was greater than 50000 nM.
